The target in one assay is T1, caspase-8 (Homo sapiens, UniProt Q14790).
T1 construct: p10 and p20 subunits (Thornberry, N. A. et al, Nature, 1992, 356, 768) were expressed in E. coli; made in house; host or cells: E. coli
The experiment in a line: Caspase-8 inhibitory effect (fluorescent substrate AcDEVD-AFC). In kind it is biochemical. The note with it: 25° C., 50 μM AcDEVD-AFC, 2.1 nM caspase-8; for kinact/KI: pH 7.5, read-out: Caspase-8 Kobs/[I] (converted). As to the method:
Caspase-1 and caspase-8 known as cysteine proteases in the form of α2β2 were expressed, purified, and activated by modifying a method known in Thornberry, N. A. et al, Nature, 1992, 356, 768. Thornberry, N. A. Methods in Enzymology, 1994, 244, 615. Walker, N. P. C. et al. Cell, 1994, 78, 343, and caspase-9 was also purified by a similar method, and the inhibitory activity against them was tested. Briefly describing, p10 and p20 subunits (Thornberry, N. A. et al, Nature, 1992, 356, 768) were expressed in E. coli and purified by nickel column and anionic exchange chromatography to give caspase-1, caspase-8 and caspase-9. The fluorescent substrate AcYVAD-AFC for thus obtained caspase-1, AcDEVD-AFC for caspase-8, and AcLEHD-AFC for caspase-9 were used for determining specific activity of the synthesized inhibitors. The enzyme reaction was carried out at 25° C. with various concentrations of the inhibitors in a buffer solution containing 50 mM HEPES(pH 7.50), 10% (w/v) sucrose, 0.1% (w/v) CHAPS, 100 mM NaCl, 1 mM EDTA, and 10 mM DTT in the presence of 50 μM AcYVAD-AFC for 10 nM caspase-1, 50 μM AcDEVD-AFC for 2.1 nM caspase-8, and 150 μM AcLEHD-AFC for 200 nM caspase-9. The inhibitory constants Ki and Kobs of the inhibitors were determined by measuring the reaction velocity with the time lapse using a fluorescent spectrometer and by obtaining the initial rate constant. Ki was calculated from the Lineweaver Burk Plot, and Kobs from the following Equation 1. Kobs=−ln(1−At/Aoo)/t Equation 1
At means cleavate rate (%) at time t, and
Aoo means the maximum cleavage rate (%).
Spectra MAX GeminiXS Fluorescent Spectrometer of Molecular Device Co. was used at the excitation wavelength of 405 nm and the emission wavelength of […].

Assay [1] concerns Jurkat cell (ATCC TIB-152). The experiment in a line: Jurkat cell apoptosis by Fas antibody, WST-1 method. In kind it is cell-based. The following applies: apoptosis using Fas antibody, WST-1; for IC50: Homo sapiens, Jurkat. As to the method: The […] inhibitory activity of the inhibitors was determined by subjecting Jurkat cell (ATCC TIB-152) to apoptosis using Fas antibody (Upstate Biotech 05-201) and by detecting the color change according to the WST-1 method known in Francoeur A. M. and Assalian A. (1996) Biochemica 3, 19-25 to observe the amount of alive Jurkat cells when the cells were treated by the inhibitor. Spectra MAX 340 Spectrometer of Molecular Device Co. was used at the absorbance wavelength of 440 nm.

T1 sequence (Q14790 217-374 limits assumed, species assumed): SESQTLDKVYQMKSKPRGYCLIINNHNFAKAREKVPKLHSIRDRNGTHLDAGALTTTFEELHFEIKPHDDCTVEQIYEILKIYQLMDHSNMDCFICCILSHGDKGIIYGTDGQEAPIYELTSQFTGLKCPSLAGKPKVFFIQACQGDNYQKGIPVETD
T1 sequence (Q14790 385-479 limits assumed, species assumed): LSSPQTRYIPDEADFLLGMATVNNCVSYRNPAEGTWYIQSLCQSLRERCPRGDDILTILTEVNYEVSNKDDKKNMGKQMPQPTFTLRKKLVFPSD

Turning to `CC(C)[C@@]1(C(=O)N[C@@H](CC(=O)O)C(=O)COc2cc(C(F)(F)F)nn2-c2ccccc2)CC(c2nccc3ccccc23)=NO1` [Iaa19, (3S)-3-({[(5R)-5-isopropyl-3-(1-isoquinolinyl)-4,5-dihydro-5-isoxazolyl]carbonyl}amino)-4-oxo-5-{[1-phenyl-3-(trifluoromethyl)-1H-pyrazol-5-yl]oxy}pentanoic acid], the kinact/KI on caspase-8 was 267 M⁻¹ s⁻¹. Further, in assay [1], the “Jurkat cell IC50” value was “No Activity”.

Regarding `CC(C)[C@@]1(C(=O)N[C@@H](CC(=O)O)C(=O)COC2=C(Cc3ccccc3)C(=O)OC2)CC(c2nccc3ccccc23)=NO1` [Iaa20, (3S)-5-[(4-benzyl-5-oxo-2,5-dihydro-3-furanyl)oxy]-3-({[(5R)-5-isopropyl-3-(1-isoquinolinyl)-4,5-dihydro-5-isoxazolyl]carbonyl}amino)-4-oxopentanoic Acid], the kinact/KI on caspase-8 was 617 M⁻¹ s⁻¹. In addition, the “Jurkat cell IC50” value in assay [1] was “No Activity”.

As for `CC(C)C(=O)OCC(=O)[C@H](CC(=O)O)NC(=O)[C@]1(C(C)C)CC(c2nccc3ccccc23)=NO1` [Iaa21, (3S)-5-(isobutyryloxy)-3-({[(5R)-5-isopropyl-3-(1-isoquinolinyl)-4,5-dihydro-5-isoxazolyl]carbonyl}amino)-4-oxopentanoic acid], the “Caspase-8 Kobs/[I]” value on caspase-8 was “No Activity”. Also, in assay [1], the “Jurkat cell IC50” value was “No Activity”.

With `CC(C)[C@@]1(C(=O)N[C@@H](CC(=O)O)C(=O)COc2ccccn2)CC(c2nccc3ccccc23)=NO1` [Iaa23, (3S)-3-({[(5R)-5-isopropyl-3-(1-isoquinolinyl)-4,5-dihydro-5-isoxazolyl]carbonyl}amino)-4-oxo-5-(2-pyridinyloxy)pentanoic Acid], the kinact/KI at caspase-8 is 483 M⁻¹ s⁻¹. The “Jurkat cell IC50” value in assay [1] is on record as “No Activity”.

Turning to `CC(C)[C@@]1(C(=O)N[C@@H](CC(=O)O)C(=O)COc2cccc[n+]2C)CC(c2nccc3ccccc23)=NO1.O=S(=O)([O-])C(F)(F)F` [Iaa25, 2-{[(3S)-4-carboxy-3-({[(5R)-5-isopropyl-3-(1-isoquinolinyl)-4,5-dihydro-5-isoxazolyl]carbonyl}amino)-2-oxobutyl]oxy}-1-methylpyridinium trifluoromethanesulfonate], the kinact/KI at caspase-8 was 2830 M⁻¹ s⁻¹. Further, the “Jurkat cell IC50” value in assay [1] was “No Activity”.

For `CCC1(C(=O)N[C@@H](CC(=O)O)C(=O)COc2cccc[n+]2C)CC(c2ccccc2C(C)C)=NO1.O=S(=O)([O-])C(F)(F)F` (stereo partly drawn) [Iaa26, 2-{[(3S)-4-carboxy-3-({[5-ethyl-3-(2-isopropylphenyl)-4,5-dihydro-5-isoxazolyl]carbonyl}amino)-2-oxobutyl]oxy}-1-methylpyridinium trifluoromethanesulfonate], the kinact/KI at caspase-8 was 517 M⁻¹ s⁻¹. For the same compound, the “Jurkat cell IC50” value in assay [1] was “No Activity”.

Usually IC50 stands for the concentration needed to halve the response being measured. Consider `CC(C)C1(C(=O)NC(CC(=O)O)C(=O)CF)CC(c2cc3cc(Cl)ccc3n2C)=NO1` (stereo not drawn) [Iaa27, 3-({[3-(5-chloro-1-methyl-1H-indol-2-yl)-5-isopropyl-4,5-dihydro-5-isoxazolyl]carbonyl}amino)-5-fluoro-4-oxopentanoic acid], for which, at caspase-8, the kinact/KI is 13700 M⁻¹ s⁻¹. Also, the IC50 in assay [1] was found to be 1.3 µM.

Take `Cc1ccc2c(c1)cc(C1=NOC(C(=O)NC(CC(=O)O)C(=O)CF)(C(C)C)C1)n2C` (stereo not drawn) [Iaa28, 3-({[3-(1,5-dimethyl-1H-indol-2-yl)-5-isopropyl-4,5-dihydro-5-isoxazolyl]carbonyl}amino)-5-fluoro-4-oxopentanoic Acid]: the kinact/KI at caspase-8 is 30000 M⁻¹ s⁻¹. In assay [1], this compound gave an IC50 of 0.6 µM.

On to `CCC1(C(=O)N[C@@H](CC(=O)O)C(=O)COc2c(F)c(F)cc(F)c2F)CC(c2ccc3ccccc3c2)=NO1` (stereo partly drawn) [Iee, (3S)-3-({[5-ethyl-3-(2-naphthyl)-4,5-dihydro-5-isoxazolyl]carbonyl}amino)-4-oxo-5-(2,3,5,6-tetrafluorophenoxy)pentanoic acid], for which the kinact/KI on caspase-8 was 3000 M⁻¹ s⁻¹. Moreover, in assay [1], the IC50 was found to be 32.6 µM.

For the compound `CCC1(C(=O)N[C@@H](CC(=O)O)C(=O)COc2c(F)c(F)cc(F)c2F)CC(c2nccc3ccccc23)=NO1` (stereo partly drawn) [Iff, (3S)-3-({[5-ethyl-3-(1-isoquinolinyl)-4,5-dihydro-5-isoxazolyl]carbonyl}amino)-4-oxo-5-(2,3,5,6-tetrafluorophenoxy)pentanoic acid], the kinact/KI at caspase-8 was 8330 M⁻¹ s⁻¹. The compound also registered a 50% inhibitory concentration (IC50) in assay [1] of 1.2 µM.

As to `CCC1(C(=O)NC(CC(=O)O)C(=O)CF)CC(c2ccnc3ccccc23)=NO1` (stereo not drawn) [Ijj, 3-({[5-Ethyl-3-(4-quinolinyl)-4,5-dihydro-5-isoxazolyl]carbonyl}amino)-5-fluoro-4-oxopentanoic acid], at caspase-8, the kinact/KI was 3170 M⁻¹ s⁻¹. Half-maximal inhibition in assay [1] (IC50) required 4.7 µM.

As to `CCC1(C(=O)NC(CC(=O)O)C(=O)CF)CC(c2cc3ccccc3s2)=NO1` (stereo not drawn) [Ikk, 3-({[3-(benzothiophen-2-yl)-5-ethyl-4,5-dihydro-5-isoxazolyl]carbonyl}amino)-5-fluoro-4-oxopentanoic acid], the kinact/KI at caspase-8 is 2000 M⁻¹ s⁻¹. The same compound showed an IC50 in assay [1] of 1.1 µM.

As for `CCC1(C(=O)N[C@@H](CC(=O)O)C(=O)COc2c(F)c(F)cc(F)c2F)CC(c2c(C)c3ccccc3n2C)=NO1` (stereo partly drawn) [Ill, (3S)-3-({[3-(1,3-dimethyl-1H-indol-2-yl)-5-ethyl-4,5-dihydro-5-isoxazolyl]carbonyl}amino)-4-oxo-5-(2,3,5,6-tetrafluorophenoxy)pentanoic acid], the kinact/KI on caspase-8 is 2170 M⁻¹ s⁻¹. The compound also registered an IC50 in assay [1] of 39.2 µM.

As for `CCC1(C(=O)NC(CC(=O)O)C(=O)CF)CC(c2c(C)c3ccccc3n2C)=NO1` (stereo not drawn) [Imm, 3-({[3-(1,3-Dimethyl-1H-indol-2-yl)-5-ethyl-4,5-dihydro-5-isoxazolyl]carbonyl}amino)-5-fluoro-4-oxopentanoic acid], the kinact/KI at caspase-8 is 2670 M⁻¹ s⁻¹. Besides, in assay [1], 2 µM corresponded to half-maximal inhibition (IC50).

Take `CCC1(C(=O)N[C@@H](CC(=O)O)C(=O)COc2c(F)c(F)cc(F)c2F)CC(Cc2cccc3ccccc23)=NO1` (stereo partly drawn) [Inn, (3S)-3-({[5-ethyl-3-(1-naphthylmethyl)-4,5-dihydro-5-isoxazolyl]carbonyl}amino)-4-oxo-5-(2,3,5,6-tetrafluorophenoxy)pentanoic acid]: the kinact/KI on caspase-8 was 4330 M⁻¹ s⁻¹. This compound had an IC50 in assay [1] of 6.5 µM.

Consider `CCC1(C(=O)N[C@@H](CC(=O)O)C(=O)COC(=O)c2c(Cl)cccc2Cl)CC(CCc2cccc3ccccc23)=NO1` (stereo partly drawn) [Ioo, (3S)-5-[(2,6-dichlorobenzoyl)oxy]-3-[({5-ethyl-3-[2-(1-naphthyl)ethyl]-4,5-dihydro-5-isoxazolyl}carbonyl)amino]-4-oxopentanoic acid], for which the kinact/KI at caspase-8 is 333 M⁻¹ s⁻¹. This compound registered an IC50 in assay [1] of 50 µM.

On to `CCC[C@@]1(C(=O)NC(CC(=O)O)C(=O)CF)CC(c2nccc3ccccc23)=NO1` (stereo partly drawn) [Itt, 5-Fluoro-3-({[(5S)-3-(1-isoquinolinyl)-5-propyl-4,5-dihydro-5-isoxazolyl]carbonyl}amino)-4-oxopentanoic acid], for which the kinact/KI at caspase-8 is 7170 M⁻¹ s⁻¹. The compound further had an IC50 in assay [1] of 0.16 µM.

Regarding `CC[C@@]1(C(=O)NC(CC(=O)O)C(=O)CF)CC(c2cccc3ccccc23)=NO1` (stereo partly drawn) [Iuu, 3-({[(5S)-5-ethyl-3-(1-naphthyl)-4,5-dihydro-5-isoxazolyl]carbonyl}amino)-5-fluoro-4-oxopentanoic acid], at caspase-8, the kinact/KI is 4830 M⁻¹ s⁻¹. In assay [1], this compound showed a half-maximal inhibitory concentration (IC50) of 0.98 µM.

On to `CC[C@@]1(C(=O)NC(CC(=O)O)C(=O)CF)CC(c2ccc3ccccc3n2)=NO1` (stereo partly drawn) [Ivv, 3-({[(5S)-5-ethyl-3-(2-quinolinyl)-4,5-dihydro-5-isoxazolyl]carbonyl}amino)-5-fluoro-4-oxopentanoic acid], for which the kinact/KI at caspase-8 is 25000 M⁻¹ s⁻¹. Further, the IC50 in assay [1] was found to be 0.15 µM.

For the compound `CC[C@]1(C(=O)NC(CC(=O)O)C(=O)CF)CC(c2cc3ccccc3cn2)=NO1` (stereo partly drawn) [Iww, 3-({[(5R)-5-ethyl-3-(3-isoquinolinyl)-4,5-dihydro-5-isoxazolyl]carbonyl}amino)-5-fluoro-4-oxopentanoic Acid], on caspase-8, the kinact/KI is 18300 M⁻¹ s⁻¹. Further, the IC50 in assay [1] amounted to 1.9 µM.

With `CCC1(C(=O)NC(CC(=O)O)C(=O)CF)CC(c2cccc3cccnc23)=NO1` (stereo not drawn) [Ixx, 3-({[5-ethyl-3-(8-quinolinyl)-4,5-dihydro-5-isoxazolyl]carbonyl}amino)-5-fluoro-4-oxopentanoic acid], the kinact/KI at caspase-8 is 667 M⁻¹ s⁻¹. For the same compound, the IC50 in assay [1] turned out to be 26.5 µM.

Source of the values: patent US7557133B2, “Caspase inhibitors containing isoxazoline ring” (LG Life Sciences Ltd., priority 2003, dated 2009).
